Data published in patent US8481084B2, “Cholesterol-interacting layered phyllosilicates and methods of reducing hypercholesteremia in a mammal” (Amcol International Corporation, priority 2007, dated 2013).

What was measured:
[1] = system: New Zealand Male Rabbits fed a high cholesterol diet; experiment: Plasma lipids in rabbits fed a high cholesterol diet, severe dyslipidemic model (Example 11); assay type: in vivo, New Zealand white rabbits
Experimental: Male New Zealand white rabbits ([…]; Control group [n=5], Simvastatin Group [n=4], Compound A Group [n=5], Compound B Group [n=5] and Compound C Group [n=5]) were housed in individual cages in a room with constant humidity and temperature (22° C.) under a 12 h light-dark cycle, and fed a standard diet for 7 days. After 7 days, animals were fed 10 g of a regular chow diet plus 100 g of the same diet supplemented with 0.5% (w/v) cholesterol and 14.0% (w/v) coconut oil for an additional 28 days. The final diet administered to these rabbits (following dilution of 100 g of high fat/cholesterol diet with 10 g of regular chow) consistent of 0.45% (w/v) cholesterol and 12.75% (w/v) coconut oil. […] The total plasma cholesterol, ApoB, HDL and triglyceride concentrations of the subjects prior to drug treatment is set forth in FIGS. 1-4, respectively.
For an additional 21 days (day 35 to day 56 of the study), a group of control animals (n=5) were maintained on the same diet (10 g regular chow diet plus 100 g of cholesterol/coconut diet) and four groups of animals were fed 100 g of cholesterol/coconut diet plus 10 g regular chow diet containing either simvastatin (3 mg/kg/day; n=4), Compound A (hydrogen protonated layered phyllosilicate material (prepared as described above in Example 2); 20 mg/kg/day; n=5), Compound B (layered phyllosilicate material with surface modified with lecithin prepared as described above in Example 5); 20 mg/kg/day; n=5) and Compound C (layered phyllosilicate material with surface acid treatment prepared as described above in Example 6) 20 mg/kg/day; n=5). Whole blood was collected (3 ml) prior to and 7, 14, and 21 days after initiation of treatment for plasma lipid determinations.
Plasma total cholesterol and triglyceride concentrations were directly quantified using enzymatic kits (Sigma Aldrich). HDL-cholesterol concentrations were determined using the dextran sulfate-Mg^2+ precipitation method as developed by Wamick et al. (9). The Friedewald equation for determining LDL cholesterol could not be used in this rabbit fed model (10). However, measurement of apoB cholesterol (which takes into account LDL-cholesterol) concentrations were determined by subtracting HDL-cholesterol concentrations from total cholesterol concentrations.
Statistical analysis: Results are expressed as mean±standard error of the mean (SEM). Statistical analyses were conducted using an analysis of variance (PCANOVA; Human Dynamic Systems) and assuming unequal variance (Newman Keuls post-hoc test; assuming unequal variance). Variables compared among treatment groups include, weight gain, total plasma cholesterol, total plasma triglyceride, HDL-cholesterol and ApoB-cholesterol. A p-value of less than 0.05 indicates a significant difference between treated and untreated groups.

[2] = system: intestinal cholesterol absorption; experiment: Absorption of orally given [3H]cholesterol in rats, plasma AUC (Example 12); assay type: in vivo, male Sprague Dawley rats
Experimental: The following Example was performed to determine the bioavailability and pharmacokinetics of dietary cholesterol following oral administration of different layered phyllosilicate material compounds to male Sprague Dawley rats, using the methodology reported in Wassan et al. J. Pharmaceut. Sci., 90:23-28, 2001.
Preparation of cholesterol formulation: Commercially available 20% Intralipid® was diluted by external phase of emulsion to reach a triglyceride concentration of 10% v/v. Cold cholesterole as dissolved in 100% ethanol (1 mg/75 μl) and the solution was slowly added to the 10% Intralipid® with magnetic stirring. [^3H]cholesterol toluene solution (25 μl/ml) was then slowly added and then vortexed for 30 seconds. The formulation was then mixed by magnetic stirring for an additional 30 minutes until ready for administration. The final formulation contained 90% of the 10% Intralipid®, 7.5% ethanol and 2.5% toluene. The final concentrations of cold and radiolabeled cholesterol were 1 mg/ml and 25 μCi/ml, respectively.
Preparation of Ezetimibe Formulation: Commercially Available Ezetimibe Tablets were crushed and suspended in double distilled water to reach final ezetimibe concentration of 5 mg/ml. The suspension was briefly vortexed and then stirred using a magnetic stirrer for about 1 hour until ready for administration.
Preparation of the Stigmastanol Formulation: Stigmastanol was Pre-Wetted by Tween 80 (1% v/v final concentration) and suspended in 2% sodium carboxymethyl cellulose solution in double distilled water. The suspension was briefly vortexed for about 3 minutes, sonicated (Bransonic®3510) for 2 hours at ambient temperature and then stirred with a magnetic stirrer for 30 minutes until ready for administration. The final concentration of stigmastanol in the suspension was 25 mg/ml.
Experimental design: All rats used in this study were cared for in accordance with the principles promulgated by the Canadian Council on Animal Care and the University of British Columbia. Adult male Sprague Dawley rats (weighing approximately 350 g) were obtained from UBC animal care unit (Vancouver, B. C., Canada). The rats were maintained under a 12 hour light ([…])/dark cycle and supplied with a standard laboratory diet (PMI Feeds, Richmond, Va., USA) and water ad libitum. The right external jugular vein was cannulated with a two-part catheter consisting of PE 50 connected to a short length of 0.02 inch silastic tubing inserted 3.2 cm past the clavicle (Hauss et al., Contemp Top Lab Anim Sci., 37(3):56-58 1998). The jugular cannula was tunneled beneath the skin and exteriorized through a small stab wound in the back of the neck. The animals were outfitted with jacket-and-tether assemblies and placed in metabolism cages for the duration of the study.
Following completion of the surgical procedures, the animals were fasted overnight and permitted to recover for 16-20 hours. Free access to a drinking solution consisting of 5% glucose in lactated Ringer's solution was permitted postoperatively and throughout the study. The following treatment protocol was used. Following an overnight fast (12-16 hours), rats were divided into one of the following fourteen treatment groups and received a single-dose oral gavage (1 g Intralipid emulsion) at 0700 h of either:
All of test Compounds A, G, H, I, J, K, L or M were given as a separate slurry to the animal by oral gavage.
Following oral administration, serial blood samples were collected into EDTA-coated tubes predose and at 10 minutes predosing and at 0.5, 1, 2, 4, 6, 10, 24 28, 32 and 48 hours postdosing. The withdrawn blood was replaced by equal volume of normal saline to prevent hypovolemia. Rats remained fasted throughout the duration of blood sampling (12 h predosing+24 h postdosing=[…] total fasting). Plasma was obtained by centrifugation and analyzed for [^3H] cholesterol by radioactivity. […]

SMILES: CCC(C)(C)C(=O)O[C@H]1C[C@@H](C)C=C2C=C[C@H](C)[C@H](CC[C@@H]3C[C@@H](O)CC(=O)O3)[C@H]21 [Simvastatin, simvastatin]
- ApoB-Cholesterol, % C (percentage change from Day 35 to Day 56) ([1]; SVT 3 mg/kg/day, A, B, C 20 mg/kg/day, control +63%): −53%
- Total Cholesterol, % C (percentage change from Day 35 to Day 56) ([1]; SVT 3 mg/kg/day, A, B, C 20 mg/kg/day, control +68%): −52%
- Total Cholesterol, Day 35 ([1]; beginning of drug treatment (day 35), mean ± SEM, SVT 3 mg/kg/day, A, B, C 20 mg/kg/day): 1167 ± 276 mg/dL
- ApoB-Cholesterol, Day 35 ([1]; beginning of drug treatment (day 35), total minus HDL cholesterol, mean ± SEM): 1092 ± 265 mg/dL
- Total Cholesterol, Day 56 ([1]; end of drug treatment (day 56), mean ± SEM, SVT 3 mg/kg/day, A, B, C 20 mg/kg/day): 556 ± 122 mg/dL
- ApoB-Cholesterol, Day 56 ([1]; end of drug treatment (day 56), total minus HDL cholesterol, mean ± SEM): 517 ± 121 mg/dL

SMILES: O=C1[C@H](CC[C@H](O)c2ccc(F)cc2)[C@@H](c2ccc(O)cc2)N1c1ccc(F)cc1 [ezetimibe]
- % of control group (AUC0-48 h) ([2]; 10 mg/kg): 8.6%
- AUC0-48h (mean±SEM) ([2]; 10 mg/kg ezetimibe): 6940 ± 462 ng·h/mL
- AUC0-48 h of cholesterol (mean ± SEM) ([2]; 10 mg/kg oral with [3H]cholesterol, control 80861 ± 5911): 6937 ± 462 ng·h/mL
- inhibition of intestinal cholesterol absorption, in words ([2]; ezetimibe 10 mg/kg versus Compound A or stigmastanol 50 mg/kg): higher inhibition

SMILES: CC[C@H](CC[C@@H](C)[C@H]1CC[C@H]2[C@@H]3CC[C@H]4C[C@@H](O)CC[C@]4(C)[C@H]3CC[C@]12C)C(C)C [stigmastanol]
- % of control group (AUC0-48 h) ([2]; 50 mg/kg): 68.9%
- AUC0-48 h of cholesterol (mean ± SEM) ([2]; 50 mg/kg oral with [3H]cholesterol): 55742 ± 3764 ng·h/mL
